Experiment: xn = mol fraction of the nth substance listed
Conditions: 298.15 K, 100 kPa

CCn1cc[n+](C)c1.C[C@H](O)C(=O)[O-] + O
Conditions | electrical conductivity [S/m] | speed of sound [m/s] | viscosity [mPa·s]
x1 = 0.0056 | 0.329 | – | –
x1 = 0.0097 | – | 1567.3 | 1.17
x1 = 0.0197 | – | 1631 | 1.44
x2 = 0.0056 | – | 1731.4 | –
x2 = 0.0097 | 1.76 | – | –
x2 = 0.0197 | 2.71 | – | –
x2 = 0.0304 | 3.15 | – | –
x2 = 0.0374 | 3.28 | – | –
x2 = 0.0464 | – | 1735.1 | 110
x2 = 0.0739 | 3.02 | – | –
x2 = 0.094 | 2.75 | – | –
x2 = 0.0982 | – | 1738.6 | 60.5
x2 = 0.2881 | 1.07 | – | –
x2 = 0.4781 | 0.597 | – | –
x2 = 0.5219 | – | 1797.9 | 18.5
x2 = 0.6862 | 0.481 | – | –
x2 = 0.7119 | – | 1826.6 | 11.3
x2 = 0.9018 | 0.259 | – | –
x2 = 0.906 | – | 1842.9 | 5.65
x2 = 0.9261 | – | 1819.8 | 4.36
x2 = 0.9536 | 0.289 | – | –
x2 = 0.9547 | – | 1748.4 | 2.68
x2 = 0.9626 | – | 1719.9 | 2.23

From a compilation of properties of binary mixtures (doi:10.1021/jp911536z)
